# Measurements: patent publication US20060019270A1, “Global DNA methylation assessment using bisulfite PCR” (Board of Regents The University of Texas System, priority 2004, published 2006)
# What was measured:
# [1] = system: Alu element methylation in Hct116 cells; experiment: COBRA (MboI) of Alu repetitive element PCR, Hct116 cells treated with DAC; type: cell-based, human; details: 5 μM DAC for three days, 29% prior to treatment
# Method: (§1) Hct116, RKO and SW48, colon cancer cell lines (American Type Culture Collection, Manassas, Va.), were cultured using standard methods. Cells were treated with 5 μM 5-aza-2′deoxycytidine (DAC) for three days prior to being harvested. DNA from cell lines and peripheral blood leukocytes was extracted using phenol-chloroform extraction methods well known to one with skill on the art.
# (§2) Bisulfite modification of genomic DNA is known in the art (see Clark et. al, 1994). In brief, 1.5 μg prepared 10 mM hydroquinone (Sigma) and 520 μl of 3M Sodium Bisulfite (Sigma) at pH=5.0 were added and mixed. The samples were overlayed with mineral oil to prevent evaporation and incubated at 50° C. for 16 hours. […] Bisulfite treated DNA was stored at −20° C. until ready for use.
# (§3) Methylation analysis of Alu repetitive elements was performed initially by the COBRA assay. […] The digested PCR product was then separated by polyacrylamide gel electrophoresis or the PCR products were quantitated using a capillary electrophoresis system, an Agilent 2100 Bioanalyzer (Agilent Technologies, Palo Alto, Calif.).
# (§4) In order to test whether Alu element […] LINE-1 methylation could approximate global methylation, COBRA, restriction digestion of the repetitive element PCR product, was used to quantitate DNA methylation in cell lines treated with 5-aza-2′deoxycytidine (DAC) (FIG. 3). […]
# [2] = system: Alu element methylation in RKO cells; experiment: COBRA (MboI) of Alu repetitive element PCR, RKO cells treated with DAC; type: cell-based, human; details: 5 μM DAC for three days, decrease from 26%
# Method: as §1, §2, §3, §4
# [3] = system: Alu element methylation in SW48 cells; experiment: COBRA (MboI) of Alu repetitive element PCR, SW48 cells treated with DAC; type: cell-based, human; details: 5 μM DAC for three days, decrease from 28%
# Method: as §1, §2, §3, §4
# [4] = system: leukemia (AML/MDS, CML/CMML) patients; experiment: Clinical response in the High Dose and Low Dose decitabine studies; type: in vivo, human
# Method: FIG. 6 illustrates treatment schema of patient samples. Patients were treated as part of a Phase II study of Decitabine which was given initially a dose of 90 mg/m2 twice daily for 5 consecutive days. This dose was later decreased to 50 mg/m2 twice daily due to toxicity. In this “High” Dose Study a total dose of 500-900 mg/m2 of decitabine was given over a 5 day period. Peripheral blood specimens were collected on day 0 or 1 prior to treatment, days 2-4 during treatment, and on days 5 or 6 after the completion of treatment. In the second study, a Phase I strategy of “Low” Dose Decitabine was used. This study was designed to take advantage of Decitabine's demethylating properties. Escalating doses of Decitabine of 5, 10, 15 and 20 mg/m2 were given as ten daily doses over a two week period. The total dose delivered was only 50 to 200 mg/m2 over a 14 day period. Peripheral blood specimens were collected on day 0 or 1 prior to treatment, and during days 2-14 of treatment;
# Patient samples were collected from patients treated as part of two clinical studies using 5-aza-2′deoxycytidine (decitabine) as a single agent. The first study treated patients with 50-90 mg/m2 of decitabine twice daily for 5 consecutive days (See FIG. 8). The second study was a phase I study which attempted to capitalize on the demethylating properties of decitabine by using a lower dose of decitabine, 5-20 mg/m^2 once daily, for a longer period of time, 10 days over a two week period (See FIG. 8). Peripheral blood samples were collected prior to, during and after treatment. Donation of blood samples for laboratory studies was voluntary and […] were collected from 41 patients participating in both studies (See Table 4). Due to competing protocols and the availability of patients at the time of the two respective studies the majority of the patients enrolled on DM−, the “High-Dose” study were CML patients and the majority of the patients enrolled on DM−, the “Low-Dose” study were AML or High Risk MDS patients.
# Donation of peripheral blood for laboratory analysis was voluntary, and only some of the patients enrolled on the two studies participated. A total of 134 samples were collected for analysis (52 in the High Dose Study and 82 in the Low Dose Study). The majority of patients treated in the High Dose Study were CML patients, however, the majority of patients treated in the Low Dose Study were AML or High risk MDS patients.
# [5] = Total of both studies, 41 patients
structure (smiles),measurement,setting,value
"Nc1ncn([C@H]2C[C@H](O)[C@@H](CO)O2)c(=O)n1 [decitabine, 5-aza-2′-deoxycytidine]",Alu element methylation after treatment with DAC,[1],16%
same,Alu element methylation after treatment with DAC,[2],21%
same,Alu methylation after treatment with DAC,[3],27%
same,Response Rate,"[4]; High Dose Study, 18 patients",39%
same,Treatment Response CR/PR (patients),"[4]; High Dose Study, 18 patients",7
same,Treatment Response No Response (patients),"[4]; High Dose Study, 18 patients",11
same,Response Rate,"[4]; Low Dose Study, 23 patients",35%
same,Treatment Response CR/PR (patients),"[4]; Low Dose Study, 23 patients",7
same,Treatment Response No Response (patients),"[4]; Low Dose Study, 23 patients",13
same,Response Rate,[4]; [5],34%
same,Treatment Response CR/PR (patients),[4]; [5],14
same,Treatment Response No Response (patients),[4]; [5],24
